# Results as given in patent US6759435B1, “Antidepressant drugs and methods” (A.P. Group Inc., priority 2003, dated 2004).
# Tests used:
# [1] = test system: PCA-induced serotonin depletion (5HT uptake into 5HT neurons), rat whole brain; assay: Antagonism of parachloroamphetamine (PCA)-induced depletion of serotonin levels from rat brain in vivo; set-up: species or system Sprague-Dawley CD male rats; conditions: subcutaneous, together with 6.6 mg/kg PCA, whole brain serotonin four hours later
# Excerpt: Ability of (1-{2-[1-(3,4-Dichloro-phenyl)-ethyl]-phenyl}-ethyl)-methyl-amine Hydrochloride to Antagonize Parachloroamphetamine (PCA)-induced Depletion of Serotonin Levels from Rat Brain In Vivo
# Serotonin uptake blockers show a dose-dependent antagonism of the serotonin-depleting action of PCA, a drug which requires 5HT uptake into 5HT neurons to exert its effect. Sprague-Dawley CD male rats (180-230 g.) in groups of five received two simultaneous subcutaneous injections: either the named test compound (at different dosage levels)+6.6 mg/kg body weight PCA, water+6.6 mg/kg body weight PCA, or water+water (controls). The rats were decapitated four hours later and their whole brain assayed for serotonin content by the Bogdanski method. Homogenates of brain in 0.1N HCl were made alkaline with borate buffer and extracted with butanol. The solvent phase was then extracted with 0.1N HCl. The aqueous extracts were acidified with concentrated HCl and the intrinsic fluorescence of serotonin measured in a spectrophotofluorometer. The ED50, i.e., the dose giving a 50% reversal of the PCA-induced serotonin depletion, was estimated to be 0.1 mg/kg body weight. Similarly, the ED50 for other compounds in Examples 1-17 were determined and were <0.3 mg/kg.
# [2] = test system: immobility of Swiss-Webster CD male mice; assay: Reduction of behavioral despair in vivo (modified Porsolt method); conditions: mouse, subcutaneous, tested one hour after injection, linear regression analysis of % MPE data
# Experimental: Reduction of Behavioral Despair In Vivo (Modified Porsolt Method) by (1-{2-[1-(3,4-Dichloro-phenyl)-ethyl]-phenyl}-ethyl)-methyl-amine hydrochloride.
# A modification of the procedure described by Porsolt et al., Arch. Int. Pharmnacodyn., 229, pp. 327-336 (1977) was used. A number of Swiss-Webster CD male mice weighing 25-30 g. were housed under standard laboratory conditions for at least one week prior to experimentation. Groups of 10 mice were then injected subcutaneously with either a given dosage of the named test compound or vehicle (5% Emulphor: 5% ethanol: 90% normal saline). One hour later the mice were placed individually in 1 liter beakers containing 7 cm of 25° C. water. […] A total of ten observations were made, each being scored as “0=animal moving, swimming, attempting to escape” or “1=animal immobile”. The number of positive observations for each mouse was then totaled and a mean immobility score calculated for the group of ten. […] From the % MPE data a % MPE50 value, i.e. the dosage producing a 50% reduction in immobility relative to control, was determined by linear regression analysis to be 5.2 mg/kg body weight for the named test compound. Similarly, the % MPE50 values were determined for other compounds in examples 1-17 and were <8.0 mg/kg.
structure (smiles),measurement,setting,value
"CNC(C)c1ccccc1C(C)c1ccc(Cl)c(Cl)c1.Cl (centres unmarked) [(1-{2-[1-(3,4-Dichloro-phenyl)-ethyl]-phenyl}-ethyl)-methyl-amine Hydrochloride]","ED50, the dose giving a 50% reversal of the PCA-induced serotonin depletion",[1],0.1 mg/kg body weight
same,"% MPE50, the dosage producing a 50% reduction in immobility relative to control",[2],5.2 mg/kg body weight
